Source: US20190255019A1, “NOVEL DOSAGE REGIMEN” (Biogen MA Inc., priority 2016, published 2019)
Like-named read-outs stand apart in the source and are kept apart here.

What was measured:
[1] = cited from earlier work
Human Nav1.7 = Human Nav1.7 (Homo sapiens, UniProt Q15858); assay: In vitro assay quantifying block of hNav1.7 at mid point inactivation, read at free plasma Cmax; type: biochemical; conditions: at free plasma Cmax of 200 mg bid
Text: In Table 1, free plasma CMax exposures of Example 1 obtained from modelling different dosing regimens were used to quantify the resulting amount of block at the primary target hNaV1.7. […] Doses of marketed drugs used in trigeminal neuralgia were compared using the same paradigm.

trigeminal neuralgia = conditions: 200 mg bid, TN; cited from earlier work

Chain of Human Nav1.7 (Q15858 whole entry): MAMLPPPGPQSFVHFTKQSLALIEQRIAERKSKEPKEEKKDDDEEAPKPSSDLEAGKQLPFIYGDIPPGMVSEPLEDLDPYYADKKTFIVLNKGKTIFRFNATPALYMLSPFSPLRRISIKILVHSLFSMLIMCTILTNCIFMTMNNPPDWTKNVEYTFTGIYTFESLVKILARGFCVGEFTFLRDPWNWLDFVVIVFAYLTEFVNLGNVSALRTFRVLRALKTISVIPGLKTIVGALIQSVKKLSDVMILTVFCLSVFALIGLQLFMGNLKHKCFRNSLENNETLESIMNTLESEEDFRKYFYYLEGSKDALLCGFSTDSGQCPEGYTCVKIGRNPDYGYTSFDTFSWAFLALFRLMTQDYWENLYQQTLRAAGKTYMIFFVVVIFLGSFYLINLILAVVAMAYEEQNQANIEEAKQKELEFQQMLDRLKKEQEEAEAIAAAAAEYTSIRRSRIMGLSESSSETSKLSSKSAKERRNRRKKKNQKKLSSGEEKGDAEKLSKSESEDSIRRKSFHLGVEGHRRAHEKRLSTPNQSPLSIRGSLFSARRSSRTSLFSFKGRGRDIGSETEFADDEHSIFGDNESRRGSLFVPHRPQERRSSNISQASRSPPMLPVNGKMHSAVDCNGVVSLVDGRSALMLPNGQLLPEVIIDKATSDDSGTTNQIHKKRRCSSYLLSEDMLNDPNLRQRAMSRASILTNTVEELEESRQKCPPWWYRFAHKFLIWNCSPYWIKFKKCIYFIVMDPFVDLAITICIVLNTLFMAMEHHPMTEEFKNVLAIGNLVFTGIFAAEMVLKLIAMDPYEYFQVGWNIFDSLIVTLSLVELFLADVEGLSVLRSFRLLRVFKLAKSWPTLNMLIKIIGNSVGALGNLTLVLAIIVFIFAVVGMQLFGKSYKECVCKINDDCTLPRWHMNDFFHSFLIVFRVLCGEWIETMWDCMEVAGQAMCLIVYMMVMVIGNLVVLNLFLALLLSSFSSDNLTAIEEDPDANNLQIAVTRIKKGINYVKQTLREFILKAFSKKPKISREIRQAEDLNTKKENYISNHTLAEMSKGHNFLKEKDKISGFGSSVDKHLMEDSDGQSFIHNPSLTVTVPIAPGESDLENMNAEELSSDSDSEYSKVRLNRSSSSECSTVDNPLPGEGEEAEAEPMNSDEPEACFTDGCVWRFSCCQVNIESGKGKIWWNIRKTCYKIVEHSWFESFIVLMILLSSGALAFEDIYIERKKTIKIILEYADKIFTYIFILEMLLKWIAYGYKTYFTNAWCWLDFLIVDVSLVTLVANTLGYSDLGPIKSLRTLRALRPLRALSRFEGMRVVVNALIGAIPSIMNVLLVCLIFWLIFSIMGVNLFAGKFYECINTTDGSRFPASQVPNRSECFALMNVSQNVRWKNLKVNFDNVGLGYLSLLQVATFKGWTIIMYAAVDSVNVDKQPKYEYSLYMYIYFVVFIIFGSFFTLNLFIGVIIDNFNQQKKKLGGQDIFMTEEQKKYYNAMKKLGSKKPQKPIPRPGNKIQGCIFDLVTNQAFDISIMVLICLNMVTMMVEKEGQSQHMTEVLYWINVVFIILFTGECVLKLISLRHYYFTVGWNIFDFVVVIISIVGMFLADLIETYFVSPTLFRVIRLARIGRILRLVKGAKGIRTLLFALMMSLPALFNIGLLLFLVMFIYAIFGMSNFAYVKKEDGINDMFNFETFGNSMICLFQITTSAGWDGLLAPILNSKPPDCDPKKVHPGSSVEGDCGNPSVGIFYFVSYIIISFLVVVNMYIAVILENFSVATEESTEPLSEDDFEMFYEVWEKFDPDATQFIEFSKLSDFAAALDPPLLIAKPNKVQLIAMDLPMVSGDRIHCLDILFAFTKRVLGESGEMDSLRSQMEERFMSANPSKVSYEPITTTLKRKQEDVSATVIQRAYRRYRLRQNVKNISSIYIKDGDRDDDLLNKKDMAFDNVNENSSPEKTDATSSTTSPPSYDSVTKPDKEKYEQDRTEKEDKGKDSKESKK

Row | SMILES | Cmax Free plasma ([1]; Carbamazepine 200 mg qid) | Free fraction ([1]; Carbamazepine 200 mg qid) | Human Nav1.7 % Inhibition (Human Nav1.7) | Clinical efficacy (trigeminal neuralgia) | Cmax Free plasma ([1]; Lamotrigine 200 mg bid) | Free fraction ([1]; Lamotrigine 200 mg bid)
1 | NC(=O)N1c2ccccc2C=Cc2ccccc21 [Carbamazepine] | 4 to 12 µM | 24% | – | – | – | –
2 | Nc1nnc(-c2cccc(Cl)c2Cl)c(N)n1 [Lamotrigine] | – | – | 6% | NO EFFICACY | 5.8 µM | 44%
